According to patent publication US9302999B2, “Substituted triazoles as herbicides” (E. I. DU PONT DE NEMOURS AND COMPANY, priority 2012, dated 2016):

Assays:
Assay type in all cases: in vivo
[1] = system: canarygrass (Phalaris minor); assay: Test D pre-/postemergence: canarygrass
Description: (§1) Seeds of plant species selected from bluegrass (annual bluegrass, Poa annua), blackgrass (Alopecurus myosuroides), canarygrass (Phalaris minor), chickweed (common chickweed, Stellaria media), galium (catchweed bedstraw, Galium aparine), bromegrass, downy (downy bromegrass, Bromus tectorum), field poppy (Papaver rhoeas), field violet (Viola arvensis), foxtail, green (green foxtail, Setaria viridis), deadnettle (henbit deadnettle, Lamium amplexicaule), ryegrass, Italian (Italian ryegrass, Lolium multiflorum), kochia (Kochia scoparia), lambsquarters (Chenopodium album), oilseed rape (Brassica napus), pigweed (Amaranthus retroflexus), Russian thistle (Salsola iberica), chamomile (scentless chamomile, Matricaria inodora), speedwell (bird's-eye speedwell, Veronica persica), barley, spring (spring barley, Hordeum vulgare), wheat, spring (spring wheat, Triticum aestivum), buckwheat, wild (wild buckwheat, Polygonum convolvulus), mustard, wild (wild mustard, Sinapis arvensis), oat, wild (wild oat, Avena fatua), radish, wild (wild radish, Raphanus raphanistrum), windgrass (Apera spica-venti), barley, winter (winter barley, Hordeum vulgare), and wheat, winter (winter wheat, Triticum aestivum) were planted into a silt loam soil and treated preemergence with test chemicals formulated in a non-phytotoxic solvent mixture which included a surfactant. At the same time, these same crop and weed species were planted in pots containing the planting medium comprising spaghnum peat moss, vermiculite, wetting agent and starter nutrients and treated with postemergence applications of the test chemicals formulated in the same manner. Plants ranged in height from 2 to 18 cm (1- to 4-leaf stage).
(§2) Treated plants and controls were maintained in a controlled growth environment for 14 to 21 days after which time all species were compared to controls and visually evaluated. Plant response ratings, summarized in Table D, are based on a scale of 0 to 100 where 0 is no effect and 100 is complete control. A dash (-) response means no test result.

[2] = system: chickweed (common chickweed, Stellaria media); assay: Test D pre-/postemergence: chickweed
Description: as §1, §2

[3] = system: bromegrass, downy (downy bromegrass, Bromus tectorum); assay: Test D pre-/postemergence: bromegrass, downy
Description: as §1, §2

[4] = system: radish, wild (wild radish, Raphanus raphanistrum); assay: Test D pre-/postemergence: radish, wild
Description: as §1, §2

[5] = system: wheat, winter (winter wheat, Triticum aestivum); assay: Test D pre-/postemergence: wheat, winter
Description: as §1, §2

[6] = Postemergence, 31 g ai/ha, scale 0 to 100 (0 no effect, 100 complete control)
[7] = Postemergence, 62 g ai/ha, scale 0 to 100 (0 no effect, 100 complete control)
[8] = Postemergence, 125 g ai/ha, scale 0 to 100, 0 no effect, 100 complete control
[9] = Postemergence, 250 g ai/ha, scale 0 to 100 (0 no effect, 100 complete control)
[10] = Preemergence, 31 g ai/ha, scale 0 to 100, 0 no effect, 100 complete control
[11] = Preemergence, 62 g ai/ha, scale 0 to 100
[12] = Preemergence, 125 g ai/ha, scale 0 to 100
[13] = Preemergence, 250 g ai/ha, scale 0 to 100
[14] = Postemergence, 16 g ai/ha, scale 0 to 100

Structure (SMILES): FC(F)(F)COc1nn(-c2ccc(C(F)(F)F)cc2)nc1Cc1ccnc(C(F)(F)F)c1 [Compound 14, 4-[[5-(2,2,2-trifluoroethoxy)-2-[4-(trifluoromethyl)phenyl]-2H-1,2,3-triazol-4-yl]methyl]-2-(trifluoromethyl)pyridine]
- Plant response rating: Canarygrass [1, 6]: 25
- Plant response rating: Canarygrass [1, 7]: 40
- Plant response rating: Canarygrass [1, 8]: 55
- Plant response rating: Canarygrass [1, 9]: 80
- Plant response rating, Canarygrass [1, 10]: 10
- Plant response rating, Canarygrass [1, 11]: 25
- Plant response rating, Canarygrass [1, 12]: 90
- Plant response rating, Canarygrass [1, 13]: 98
- Plant response rating: Chickweed [2, 6]: 50
- Plant response rating: Chickweed [2, 7]: 80
- Plant response rating: Chickweed [2, 8]: 90
- Plant response rating: Chickweed [2, 9]: 98
- Plant response rating, Chickweed [2, 10]: 75
- Plant response rating, Chickweed [2, 11]: 100
- Plant response rating, Chickweed [2, 12]: 100
- Plant response rating, Chickweed [2, 13]: 100
- Plant response rating: Bromegrass, Downy [3, 6]: 15
- Plant response rating: Bromegrass, Downy [3, 7]: 20
- Plant response rating: Bromegrass, Downy [3, 8]: 30
- Plant response rating: Bromegrass, Downy [3, 9]: 40
- Plant response rating, Bromegrass, Downy [3, 10]: 0
- Plant response rating, Bromegrass, Downy [3, 11]: 10
- Plant response rating, Bromegrass, Downy [3, 12]: 20
- Plant response rating, Bromegrass, Downy [3, 13]: 30
- Plant response rating: Radish, Wild [4, 6]: 70
- Plant response rating: Radish, Wild [4, 7]: 85
- Plant response rating: Radish, Wild [4, 8]: 100
- Plant response rating: Radish, Wild [4, 9]: 100
- Plant response rating, Radish, Wild [4, 11]: 40
- Plant response rating, Radish, Wild [4, 12]: 100
- Plant response rating, Radish, Wild [4, 13]: 100
- Plant response rating: Wheat, Winter [5, 6]: 5
- Plant response rating: Wheat, Winter [5, 7]: 5
- Plant response rating: Wheat, Winter [5, 8]: 15
- Plant response rating: Wheat, Winter [5, 9]: 25
- Plant response rating, Wheat, Winter [5, 10]: 0
- Plant response rating, Wheat, Winter [5, 11]: 0
- Plant response rating, Wheat, Winter [5, 12]: 10
- Plant response rating, Wheat, Winter [5, 13]: 20

Structure (SMILES): COc1nn(-c2ccc(C(F)(F)F)cc2)nc1Cc1ccnc(C(F)(F)F)c1 [Compound 15, 4-[[5-methoxy-2-[4-(trifluoromethyl)phenyl]-2H-1,2,3-triazol-4-yl]methyl]-2-(trifluoromethyl)pyridine]
- Plant response rating: Canarygrass [1, 6]: 35
- Plant response rating: Canarygrass [1, 7]: 40
- Plant response rating: Canarygrass [1, 8]: 50
- Plant response rating: Canarygrass [1, 9]: 80
- Plant response rating, Canarygrass [1, 14]: 25
- Plant response rating, Canarygrass [1, 10]: 25
- Plant response rating, Canarygrass [1, 11]: 80
- Plant response rating, Canarygrass [1, 12]: 90
- Plant response rating, Canarygrass [1, 13]: 100
- Plant response rating: Chickweed [2, 6]: 100
- Plant response rating: Chickweed [2, 7]: 100
- Plant response rating: Chickweed [2, 8]: 100
- Plant response rating: Chickweed [2, 9]: 100
- Plant response rating, Chickweed [2, 14]: 40
- Plant response rating, Chickweed [2, 10]: 100
- Plant response rating, Chickweed [2, 11]: 100
- Plant response rating, Chickweed [2, 12]: 100
- Plant response rating, Chickweed [2, 13]: 100
- Plant response rating: Bromegrass, Downy [3, 6]: 10
- Plant response rating: Bromegrass, Downy [3, 7]: 10
- Plant response rating: Bromegrass, Downy [3, 8]: 20
- Plant response rating: Bromegrass, Downy [3, 9]: 40
- Plant response rating, Bromegrass, Downy [3, 14]: 5
- Plant response rating, Bromegrass, Downy [3, 10]: 0
- Plant response rating, Bromegrass, Downy [3, 11]: 0
- Plant response rating, Bromegrass, Downy [3, 12]: 0
- Plant response rating, Bromegrass, Downy [3, 13]: 40
- Plant response rating: Radish, Wild [4, 6]: 100
- Plant response rating: Radish, Wild [4, 7]: 100
- Plant response rating: Radish, Wild [4, 8]: 100
- Plant response rating: Radish, Wild [4, 9]: 100
- Plant response rating, Radish, Wild [4, 14]: 100
- Plant response rating, Radish, Wild [4, 10]: 0
- Plant response rating, Radish, Wild [4, 11]: 0
- Plant response rating, Radish, Wild [4, 12]: 100
- Plant response rating, Radish, Wild [4, 13]: 100
- Plant response rating: Wheat, Winter [5, 6]: 10
- Plant response rating: Wheat, Winter [5, 7]: 15
- Plant response rating: Wheat, Winter [5, 8]: 25
- Plant response rating: Wheat, Winter [5, 9]: 35
- Plant response rating, Wheat, Winter [5, 14]: 5
- Plant response rating, Wheat, Winter [5, 10]: 0
- Plant response rating, Wheat, Winter [5, 11]: 0
- Plant response rating, Wheat, Winter [5, 12]: 0
- Plant response rating, Wheat, Winter [5, 13]: 5

Structure (SMILES): Cc1nn(-c2ccc(C(F)(F)F)cn2)nc1Oc1ccnc(C(F)(F)F)c1 [Compound 23]
- Plant response rating: Canarygrass [1, 6]: 15
- Plant response rating: Canarygrass [1, 7]: 20
- Plant response rating: Canarygrass [1, 8]: 25
- Plant response rating: Canarygrass [1, 9]: 30
- Plant response rating, Canarygrass [1, 14]: 10
- Plant response rating: Chickweed [2, 6]: 10
- Plant response rating: Chickweed [2, 7]: 15
- Plant response rating: Chickweed [2, 8]: 30
- Plant response rating: Chickweed [2, 9]: 90
- Plant response rating, Chickweed [2, 14]: 5
- Plant response rating: Bromegrass, Downy [3, 6]: 10
- Plant response rating: Bromegrass, Downy [3, 7]: 15
- Plant response rating: Bromegrass, Downy [3, 8]: 20
- Plant response rating: Bromegrass, Downy [3, 9]: 25
- Plant response rating, Bromegrass, Downy [3, 14]: 0
- Plant response rating: Radish, Wild [4, 6]: 20
- Plant response rating: Radish, Wild [4, 7]: 40
- Plant response rating: Radish, Wild [4, 8]: 75
- Plant response rating: Radish, Wild [4, 9]: 100
- Plant response rating, Radish, Wild [4, 14]: 20
- Plant response rating: Wheat, Winter [5, 6]: 5
- Plant response rating: Wheat, Winter [5, 7]: 10
- Plant response rating: Wheat, Winter [5, 8]: 15
- Plant response rating: Wheat, Winter [5, 9]: 15
- Plant response rating, Wheat, Winter [5, 14]: 0

Structure (SMILES): Cc1nn(-c2ccc(C(F)(F)F)cn2)nc1Cc1cccc(C(F)(F)F)c1 [Compound 106]
- Plant response rating: Canarygrass [1, 6]: 5
- Plant response rating: Canarygrass [1, 7]: 10
- Plant response rating: Canarygrass [1, 8]: 20
- Plant response rating: Canarygrass [1, 9]: 30
- Plant response rating, Canarygrass [1, 14]: 5
- Plant response rating, Canarygrass [1, 10]: 0
- Plant response rating, Canarygrass [1, 11]: 0
- Plant response rating, Canarygrass [1, 12]: 0
- Plant response rating, Canarygrass [1, 13]: 0
- Plant response rating: Chickweed [2, 6]: 90
- Plant response rating: Chickweed [2, 7]: 90
- Plant response rating: Chickweed [2, 8]: 90
- Plant response rating: Chickweed [2, 9]: 90
- Plant response rating, Chickweed [2, 14]: 20
- Plant response rating, Chickweed [2, 10]: 100
- Plant response rating, Chickweed [2, 11]: 100
- Plant response rating, Chickweed [2, 12]: 100
- Plant response rating, Chickweed [2, 13]: 100
- Plant response rating: Bromegrass, Downy [3, 6]: 0
- Plant response rating: Bromegrass, Downy [3, 7]: 10
- Plant response rating: Bromegrass, Downy [3, 8]: 15
- Plant response rating: Bromegrass, Downy [3, 9]: 15
- Plant response rating, Bromegrass, Downy [3, 14]: 0
- Plant response rating, Bromegrass, Downy [3, 10]: 0
- Plant response rating, Bromegrass, Downy [3, 11]: 0
- Plant response rating, Bromegrass, Downy [3, 12]: 0
- Plant response rating, Bromegrass, Downy [3, 13]: 0
- Plant response rating: Radish, Wild [4, 6]: 100
- Plant response rating: Radish, Wild [4, 7]: 100
- Plant response rating: Radish, Wild [4, 8]: 100
- Plant response rating: Radish, Wild [4, 9]: 100
- Plant response rating, Radish, Wild [4, 14]: 100
- Plant response rating, Radish, Wild [4, 10]: 0
- Plant response rating, Radish, Wild [4, 11]: 30
- Plant response rating, Radish, Wild [4, 12]: 30
- Plant response rating, Radish, Wild [4, 13]: 30
- Plant response rating: Wheat, Winter [5, 6]: 5
- Plant response rating: Wheat, Winter [5, 7]: 5
- Plant response rating: Wheat, Winter [5, 8]: 5
- Plant response rating: Wheat, Winter [5, 9]: 5
- Plant response rating, Wheat, Winter [5, 14]: 5
- Plant response rating, Wheat, Winter [5, 10]: 0
- Plant response rating, Wheat, Winter [5, 11]: 0
- Plant response rating, Wheat, Winter [5, 12]: 0
- Plant response rating, Wheat, Winter [5, 13]: 0
